Measurements from ChEMBL document CHEMBL1152824, “A novel insertion sequence, ISPA26, in oprD of Pseudomonas aeruginosa is associated with carbapenem resistance” (2007).
Values after ≈ are worked out from the molar mass of the structure shown.

What was measured:
[1] = tested on: Pseudomonas aeruginosa; assay: Antibacterial activity against Pseudomonas aeruginosa tracheal aspirate isolate 8 carrying insertion sequence ISPa26 inserted into oprD gene by disk susceptibility test; type: functional
[2] = tested on: Pseudomonas aeruginosa; assay: microbe, parasite or virus in culture
Description: Antibacterial activity against Pseudomonas aeruginosa cystic fibrosis sputum isolate 529 carrying insertion sequence ISPa26 by disk susceptibility test

[3] = tested on: Pseudomonas aeruginosa; assay: Antibacterial activity against Pseudomonas aeruginosa blood isolate 1 carrying insertion sequence ISPa26 by disk susceptibility test; type: functional
[4] = tested on: Pseudomonas aeruginosa; assay: Antibacterial activity against Pseudomonas aeruginosa tracheal aspirate isolate 7 carrying insertion sequence ISPa26 by disk susceptibility test; type: functional
[5] = tested on: Pseudomonas aeruginosa; assay: Antibacterial activity against Pseudomonas aeruginosa tracheal aspirate isolate 12 carrying insertion sequence ISPa26 by disk susceptibility test; type: functional
[6] = tested on: Pseudomonas aeruginosa; assay: Antibacterial activity against Pseudomonas aeruginosa cystic fibrosis sputum isolate 286 carrying insertion sequence ISPa26 by disk susceptibility test; type: functional
[7] = tested on: Pseudomonas aeruginosa; assay: Antibacterial activity against Pseudomonas aeruginosa pus isolate 6 carrying insertion sequence ISPa26 by disk susceptibility test; type: functional

SMILES | MIC [1] [µg/mL] | MIC [2] [µg/mL] | MIC [3] [µg/mL] | MIC [4] [µg/mL] | MIC [5] [µg/mL] | MIC [6] [µg/mL] | MIC [7] [µg/mL]
C[C@@H](O)[C@H]1C(=O)N2C(C(=O)O)=C(SCCNC=N)C[C@H]12 [IMIPENEM ANHYDROUS] | > 32 | 1 (≈ 3.34 µM) | > 32 | > 32 | 2 (≈ 6.68 µM) | > 32 | > 32
C[C@@H](O)[C@H]1C(=O)N2C(C(=O)O)=C(S[C@@H]3CN[C@H](C(=O)N(C)C)C3)[C@H](C)[C@H]12 [MEROPENEM] | > 32 | 2 (≈ 5.22 µM) | > 32 | 6 (≈ 15.6 µM) | 3 (≈ 7.82 µM) | > 32 | 6 (≈ 15.6 µM)
